Data from patent publication US9522184B2, “CD89 activation in therapy” (CSL BEHRING AG, priority 2010, dated 2016).

How the values were obtained:
neutrophils = test: Pan-caspase inhibition of IgA-mediated neutrophil cell death; type: cell-based, human; conditions: qVD-OPh 20 μM, 24 hours, in the presence and absence of LPS and GM-CSF; FIG. 6
Description: (§1) Antibodies: Anti-CD89 (Clone A59) (both unlabeled and phycoerythrin [PE]-conjugated), and PE-conjugated immunoglobulin G1 (IgG1) isotype control were from BD Biosciences (Basel, Switzerland). Goat anti-mouse IgG (GaM) and unlabelled control IgG1 were obtained from Jackson ImmunoResearch Laboratories (distributed by Milan Analytica, La Roche, Switzerland). Anti-Fas agonistic mAb (CH11) was obtained from LabForce AG (Nunningen, Switzerland). Pooled serum IgA was obtained from CSL Behring AG (Wankdorf, Bern), and was prepared as follows: IgA was purified from human plasma and side-fraction of the IVIg/SCIg manufacturing process by affinity chromatography using CaptureSelect Human IgA resin from BAC (Naarden, Netherlands). […] Cell purity was assessed by staining with Diff-Quik (Baxter, Düdingen, Switzerland) and light microscopy analysis. […] Immunofluorescence: CD89 surface expression was analyzed by flow cytometry following incubation of the cells with saturating concentrations of PE-conjugated anti-CD89 and isotype-matched PE-conjugated control mAbs. […] The caspase inhibitor qVD-OPh (quinoline-Val-Asp-difluorophenoxymethylketone) was used at […] Determination of Cell Death and Apoptosis: Cell death was assessed by uptake of 1 μM ethidium bromide and flow cytometric analysis (FACSCalibur, Becton Dickinson). […]

human neutrophils = test: CD89 surface expression on neutrophils by flow cytometry after inflammatory stimulus; type: cell-based
Description: as §1

CC(C)[C@H](NC(=O)c1ccc2ccccc2n1)C(=O)N[C@@H](CC(=O)O)C(=O)COc1c(F)cccc1F [qVD-OPh, quinoline-Val-Asp-difluorophenoxymethylketone]
effect on plasma IgA-mediated neutrophil cell death (neutrophils): blocked

GM-CSF: Cytokine (Novartis Pharma) used as inflammatory stimulus
CD89 expression on neutrophils (human neutrophils; 8 hours, 100 ng/ml LPS or 10 ng/ml GM-CSF, blood neutrophils of healthy volunteers, FIG. 1A): CD89 expression was increased | time to significant upregulation of CD89 expression (human neutrophils; time course, FIG. 1B): 4 h
